Laboratory results reported in patent US7897741B2, “Cell cycle phase markers” (GE Healthcare UK Limited, priority 2004, dated 2011).

Assays:
Type in all cases: cell-based, human
[1] = test system: U2OS stable cells expressing the pCORON1002-EGFP-C1-PSLD construct; assay: Chemical cell cycle block studies on EGFP-PSLD stable cell line (IN Cell Analyzer imaging); conditions: for % G1: % of cells per field of view in G1-phase; for % G2: % of cells per field of view in G2-phase; for % S: % of cells per field of view in S-phase; for Total cells: total number of cells per field of view
Experimental: Stable cells expressing the pCORON1002-EGFP-C1-PSLD construct, were seeded at 0.3×10^5/ml in 96-well Greiner plates using antibiotic-free medium (100 μl/well) and incubate for 16 hours.
For chemical block studies (Table 1), stable cells were exposed to olomoucine, roscovitine, nocodazole, mimosine, colcemid or colchicine (Sigma). Cells were fixed in 2% formalin and nuclei stained with hoechst (2 μM).
After high throughput imaging and analysis on the IN Cell Analyzer system (GEHC), data for average nuclear intensity and N:C ratio (EGFP signal), nuclear size (hoescht signal) and, where appropriate, nuclear signal intensity (BrdU) were obtained for the total number of individual cells in a field of view using hoescht as a nuclear mask and the IN Cell Analyzer 3000 cell cycle phase marker algorithm (GEHC). For each well, the total number of cells per field of view were catagorised into G1-phase (predominantly nuclear EGFP distribution; high EGFP-PSLD nuclear intensity and N:C ratio), S-phase (nuclear BrdU signal >3SDs above background; EGFP-PSLD N:C ratio around 1) and G2-phase (large nuclear size; low EGFP-PSLD N:C ratio).

[2] = test system: CRM1-mediated nuclear export; assay: Block of nuclear protein export: localization of GFP-HDHB and FLAG-HDHB in U2OS cells with LMB; conditions: in the presence of LMB (10 ng/ml, 3 h, with 10 μM cycloheximide); asynchronous, G1 and S phase U2OS cells
Experimental: Cell cycle synchronization was verified by flow cytometry as described previously (Taneja et al., J. Biol. Chem., (2002) 277, 40853-40861). In experiments to block nuclear protein export, cells were cultured for 3 h in DMEM containing 10 ng/ml of leptomycin B (LMB) and 10 μM cycloheximide (Calbiochem, San Diego, Calif.) to prevent new protein synthesis. Cells plated on glass coverslips were microinjected as described (Herbig et al., 1999) except that plasmid DNA rather than protein was injected.
For indirect immunofluorescence staining, cells were washed three times with phosphate buffered saline (PBS), fixed with 3.7% formaldehyde in PBS for 20 min, permeabilized for 5 min in 0.2% Triton X-100, and incubated with 10% FBS in PBS for 45 min. FLAG-HDHB was detected with mouse monoclonal anti-FLAG antibody (Sigma-Aldrich), 1:100 in PBS plus 10% FBS for 2 h at room temperature. After washing, cells were incubated with Texas Red-conjugated goat anti-mouse secondary antibody (Jackson ImmunoResearch Laboratories, West Grove, Pa.) at 1:100 in PBS plus 10% FBS for 1 h at room temperature. […] The subcellular distribution of each protein was quantitatively evaluated in at least two independent experiments.
For GFP fluorescence, cells were washed three times with phosphate-buffered saline (PBS), fixed with 3.7% formaldehyde containing 2 μM Hoechst 33258 for 20 min and imaged and evaluated as above.

[3] = test system: EGFP-PSLD stable cell lines (U2OS); assay: Kinetic imaging (24 hours) of EGFP-PSLD stable cell lines treated with olomoucine; conditions: cells arrested in G2, without passing through mitosis; kinetic imaging over 24 hours
Experimental: Where appropriate, for high throughput imaging, kinetic imaging (24 hr) and analysis in multiwell plate format of stable cell lines flourescence microscopy was conducted using a high throughput confocal imaging system (IN Cell Analyzer 1000 or IN Cell Analyzer 3000, GE Healthcare, Amersham, UK) on cells transfected with pCORON1002-EGFP-C1-PSLD, pCORON1002-EGFP-C1-βGal-PSLD or redFP derivatives of these vectors. Images were analysed using the cell cycle phase marker algorithm (GE Health Care).

CN[C@H]1CCc2cc(OC)c(OC)c(OC)c2-c2ccc(OC)c(=O)cc21 [Colcemid]
% G1 ([1]; 0.3 μM): 16%
% G2 ([1]; 0.3 μM): 43%
% S ([1]; 0.3 μM): 41%
Total cells ([1]; 0.3 μM): 490
% G1 ([1]; 1.2 μM): 8%
% G2 ([1]; 1.2 μM): 59%
% S ([1]; 1.2 μM): 32%
Total cells ([1]; 1.2 μM): 450

COc1cc2c(c(OC)c1OC)-c1ccc(OC)c(=O)cc1[C@@H](NC(C)=O)CC2 [Colchicine]
% G1 ([1]; 4 μM): 9%
% G2 ([1]; 4 μM): 55%
% S ([1]; 4 μM): 36%
Total cells ([1]; 4 μM): 467
% G1 ([1]; 100 μM): 12%
% G2 ([1]; 100 μM): 57%
% S ([1]; 100 μM): 32%
Total cells ([1]; 100 μM): 439

N[C@@H](Cn1ccc(=O)c(O)c1)C(=O)O [L-mimosine]
% G1 ([1]; 2 mM): 6%
% G2 ([1]; 2 mM): 26%
% S ([1]; 2 mM): 68%
Total cells ([1]; 2 mM): 1710

CCC(=C/[C@H](C)C/C=C/C(C)=C/[C@@H](C)C(=O)[C@@H](C)[C@H](O)[C@@H](C)C/C(C)=C/C(=O)O)/C=C/[C@@H]1OC(=O)C=C[C@@H]1C [LMB, Leptomycin B]
Localization of GFP-HDHB and FLAG-HDHB fusion proteins [2]: accumulated in the nucleus independently of the cell cycle

COC(=O)Nc1nc2ccc(C(=O)c3cccs3)cc2[nH]1 [Nocodazole]
% G1 ([1]; 3 μM): 6%
% G2 ([1]; 3 μM): 61%
% S ([1]; 3 μM): 33%
Total cells ([1]; 3 μM): 606

Cn1cnc2c(NCc3ccccc3)nc(NCCO)nc21 [Olomoucine]
Time for EGFP-PSLD signal to redistribute from the cytoplasm to the nucleus [3]: 4 to 8 h
% G1 ([1]; 500 μM): 63%
% G2 ([1]; 500 μM): 4%
% S ([1]; 500 μM): 33%
Total cells ([1]; 500 μM): 600

CC[C@H](CO)Nc1nc(NCc2ccccc2)c2ncn(C(C)C)c2n1 [Roscovitin]
% G1 ([1]; 100 μM): 52%
% G2 ([1]; 100 μM): 13%
% S ([1]; 100 μM): 36%
Total cells ([1]; 100 μM): 693
EGFP-PSLD distribution and cell cycle arrest ([1]; EGFP-PSLD stable cell lines, refers to Table 1): predominantly nuclear distribution of EGFP-PSLD and arrest in G1
